In ChEMBL document CHEMBL1795246, “Phenyl isoxazole voltage-gated sodium channel blockers: structure and activity relationship” (Bioorg Med Chem Lett, 2011):
Converted amounts (≈) assume the structure as drawn.

Columns and labels:
[1] = target: Sodium channel protein type 9 subunit alpha (Homo sapiens, UniProt Q15858); assay: Inhibition of Nav1.7 by cell based whole-cell voltage clamp electrophysiology assay
[2] = target: Sodium channel protein type 5 subunit alpha (Homo sapiens, UniProt Q14524); assay: Inhibition of Nav1.5 by cell based whole-cell voltage clamp electrophysiology assay
Chain of Sodium channel protein type 5 subunit alpha (Q14524 whole entry): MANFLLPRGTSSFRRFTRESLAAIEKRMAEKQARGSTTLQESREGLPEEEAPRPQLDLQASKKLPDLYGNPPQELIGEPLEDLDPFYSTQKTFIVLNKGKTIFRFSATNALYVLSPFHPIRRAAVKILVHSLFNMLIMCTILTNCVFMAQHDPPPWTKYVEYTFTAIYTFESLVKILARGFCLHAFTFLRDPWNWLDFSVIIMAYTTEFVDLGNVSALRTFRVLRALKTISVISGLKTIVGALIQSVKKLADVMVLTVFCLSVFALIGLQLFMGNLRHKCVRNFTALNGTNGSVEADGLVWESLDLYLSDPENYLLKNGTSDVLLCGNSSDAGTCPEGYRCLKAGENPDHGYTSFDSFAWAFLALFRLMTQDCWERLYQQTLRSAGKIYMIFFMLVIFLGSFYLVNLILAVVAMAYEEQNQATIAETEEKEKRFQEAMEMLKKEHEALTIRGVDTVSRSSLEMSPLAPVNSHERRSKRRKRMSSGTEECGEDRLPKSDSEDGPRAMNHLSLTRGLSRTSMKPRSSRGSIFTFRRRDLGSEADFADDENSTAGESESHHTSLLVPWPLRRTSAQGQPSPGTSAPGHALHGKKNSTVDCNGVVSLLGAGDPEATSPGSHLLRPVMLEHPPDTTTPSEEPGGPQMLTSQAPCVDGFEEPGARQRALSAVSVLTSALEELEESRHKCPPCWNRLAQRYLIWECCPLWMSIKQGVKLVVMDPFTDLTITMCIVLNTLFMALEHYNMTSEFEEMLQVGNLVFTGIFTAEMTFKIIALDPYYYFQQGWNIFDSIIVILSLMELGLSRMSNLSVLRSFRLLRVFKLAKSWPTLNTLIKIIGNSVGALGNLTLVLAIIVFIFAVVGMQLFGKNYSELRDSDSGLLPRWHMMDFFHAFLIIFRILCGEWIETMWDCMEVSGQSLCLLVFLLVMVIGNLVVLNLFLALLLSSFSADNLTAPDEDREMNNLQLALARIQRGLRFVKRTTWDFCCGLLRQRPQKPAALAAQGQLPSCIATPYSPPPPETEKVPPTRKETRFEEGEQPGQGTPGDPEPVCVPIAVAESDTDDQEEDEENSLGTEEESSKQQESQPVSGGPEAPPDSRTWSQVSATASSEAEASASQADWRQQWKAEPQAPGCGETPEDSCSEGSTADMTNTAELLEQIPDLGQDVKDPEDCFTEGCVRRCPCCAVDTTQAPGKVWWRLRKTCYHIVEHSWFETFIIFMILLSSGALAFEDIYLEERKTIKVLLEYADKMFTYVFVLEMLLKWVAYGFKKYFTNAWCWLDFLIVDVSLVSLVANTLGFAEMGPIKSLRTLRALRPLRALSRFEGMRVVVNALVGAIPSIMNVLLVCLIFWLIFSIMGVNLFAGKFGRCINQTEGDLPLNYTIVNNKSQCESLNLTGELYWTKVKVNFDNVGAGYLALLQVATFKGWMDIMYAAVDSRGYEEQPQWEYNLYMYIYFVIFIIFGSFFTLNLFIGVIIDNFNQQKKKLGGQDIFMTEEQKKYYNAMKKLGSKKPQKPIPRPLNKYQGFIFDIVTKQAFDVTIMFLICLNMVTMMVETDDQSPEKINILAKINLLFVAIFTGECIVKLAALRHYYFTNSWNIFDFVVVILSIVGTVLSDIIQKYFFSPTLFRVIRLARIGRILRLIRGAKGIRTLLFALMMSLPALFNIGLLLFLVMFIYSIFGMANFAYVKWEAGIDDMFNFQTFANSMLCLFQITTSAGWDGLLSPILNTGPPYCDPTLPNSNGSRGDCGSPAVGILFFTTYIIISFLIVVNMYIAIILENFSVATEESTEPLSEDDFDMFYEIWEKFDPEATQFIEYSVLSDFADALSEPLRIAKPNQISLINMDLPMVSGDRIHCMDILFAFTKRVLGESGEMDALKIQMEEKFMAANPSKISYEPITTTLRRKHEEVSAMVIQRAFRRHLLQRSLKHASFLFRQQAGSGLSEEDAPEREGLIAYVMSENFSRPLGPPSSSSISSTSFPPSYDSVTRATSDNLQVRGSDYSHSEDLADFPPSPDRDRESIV

[3] = target: Voltage-gated inwardly rectifying potassium channel KCNH2 (Homo sapiens, UniProt Q12809); assay: Inhibition of human ERG
Chain of Voltage-gated inwardly rectifying potassium channel KCNH2 (Q12809 whole entry): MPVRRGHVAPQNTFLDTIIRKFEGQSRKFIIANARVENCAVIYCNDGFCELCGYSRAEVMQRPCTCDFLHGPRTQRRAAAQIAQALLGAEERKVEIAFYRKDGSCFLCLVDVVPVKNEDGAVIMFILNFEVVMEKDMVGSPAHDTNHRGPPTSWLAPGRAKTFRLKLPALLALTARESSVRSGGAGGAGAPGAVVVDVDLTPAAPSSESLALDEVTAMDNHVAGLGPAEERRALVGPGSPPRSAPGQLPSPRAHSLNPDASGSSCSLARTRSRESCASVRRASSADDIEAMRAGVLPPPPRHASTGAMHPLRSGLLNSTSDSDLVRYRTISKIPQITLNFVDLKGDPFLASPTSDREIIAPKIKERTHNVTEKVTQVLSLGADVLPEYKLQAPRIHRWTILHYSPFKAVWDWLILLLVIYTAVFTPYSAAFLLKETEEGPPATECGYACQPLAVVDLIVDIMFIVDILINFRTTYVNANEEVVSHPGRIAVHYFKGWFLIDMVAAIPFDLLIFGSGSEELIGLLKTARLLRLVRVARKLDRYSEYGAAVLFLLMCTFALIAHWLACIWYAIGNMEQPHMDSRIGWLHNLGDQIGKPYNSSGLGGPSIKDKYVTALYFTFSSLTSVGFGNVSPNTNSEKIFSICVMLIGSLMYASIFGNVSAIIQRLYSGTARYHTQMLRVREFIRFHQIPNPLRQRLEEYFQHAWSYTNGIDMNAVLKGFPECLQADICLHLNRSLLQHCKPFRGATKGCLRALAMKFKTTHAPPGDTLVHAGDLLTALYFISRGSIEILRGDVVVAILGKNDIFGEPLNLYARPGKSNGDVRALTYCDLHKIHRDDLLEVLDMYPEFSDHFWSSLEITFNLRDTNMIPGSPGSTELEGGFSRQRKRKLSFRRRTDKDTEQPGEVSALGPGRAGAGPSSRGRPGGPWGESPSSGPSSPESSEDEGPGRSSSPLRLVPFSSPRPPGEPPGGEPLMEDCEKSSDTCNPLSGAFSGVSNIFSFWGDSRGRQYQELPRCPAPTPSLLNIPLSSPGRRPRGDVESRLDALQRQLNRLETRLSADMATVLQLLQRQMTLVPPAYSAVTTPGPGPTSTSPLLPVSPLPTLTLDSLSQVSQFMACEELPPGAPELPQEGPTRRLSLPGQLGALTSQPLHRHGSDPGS

[4] = Solubility of the compound; assay type: physicochemical
[5] = Intrinsic clearance in rat liver microsomes; assay type: ADME, Microsome
[6] = Intrinsic clearance in human liver microsomes; assay type: ADME, Microsome
Rattus norvegicus [7] = assay: Dose normalized AUC in Sprague-Dawley rat at 3 umol/kg, iv; assay type: ADME, organism-based; conditions: in vivo
[8] = Volume of distribution at steady state in Sprague-Dawley rat at 3 umol/kg, iv; assay type: ADME, organism-based; conditions: in vivo, read-out: Vdss
[9] = Terminal half life in Sprague-Dawley rat at 3 umol/kg, iv; assay type: ADME, organism-based; conditions: in vivo, read-out: beta t1/2 (converted)
[10] = Clearance in Sprague-Dawley rat at 3 umol/kg, iv; assay type: ADME, organism-based; conditions: in vivo
Rattus norvegicus [11] = assay: Dose normalized AUC in Sprague-Dawley rat at 10 umol/kg, po; assay type: ADME, organism-based; conditions: in vivo
[12] = Cmax in Sprague-Dawley rat at 10 umol/kg, po; assay type: ADME, organism-based; set-up: dose 10 umol/kg, route oral; conditions: in vivo
[13] = Tmax in Sprague-Dawley rat at 10 umol/kg, po; assay type: ADME, organism-based; conditions: in vivo
[14] = Half life in Sprague-Dawley rat at 10 umol/kg, po; assay type: ADME, organism-based; conditions: in vivo
[15] = Oral bioavailability in Sprague-Dawley rat at 10 umol/kg; assay type: ADME, organism-based; conditions: in vivo

Chain of Sodium channel protein type 9 subunit alpha (Q15858 whole entry): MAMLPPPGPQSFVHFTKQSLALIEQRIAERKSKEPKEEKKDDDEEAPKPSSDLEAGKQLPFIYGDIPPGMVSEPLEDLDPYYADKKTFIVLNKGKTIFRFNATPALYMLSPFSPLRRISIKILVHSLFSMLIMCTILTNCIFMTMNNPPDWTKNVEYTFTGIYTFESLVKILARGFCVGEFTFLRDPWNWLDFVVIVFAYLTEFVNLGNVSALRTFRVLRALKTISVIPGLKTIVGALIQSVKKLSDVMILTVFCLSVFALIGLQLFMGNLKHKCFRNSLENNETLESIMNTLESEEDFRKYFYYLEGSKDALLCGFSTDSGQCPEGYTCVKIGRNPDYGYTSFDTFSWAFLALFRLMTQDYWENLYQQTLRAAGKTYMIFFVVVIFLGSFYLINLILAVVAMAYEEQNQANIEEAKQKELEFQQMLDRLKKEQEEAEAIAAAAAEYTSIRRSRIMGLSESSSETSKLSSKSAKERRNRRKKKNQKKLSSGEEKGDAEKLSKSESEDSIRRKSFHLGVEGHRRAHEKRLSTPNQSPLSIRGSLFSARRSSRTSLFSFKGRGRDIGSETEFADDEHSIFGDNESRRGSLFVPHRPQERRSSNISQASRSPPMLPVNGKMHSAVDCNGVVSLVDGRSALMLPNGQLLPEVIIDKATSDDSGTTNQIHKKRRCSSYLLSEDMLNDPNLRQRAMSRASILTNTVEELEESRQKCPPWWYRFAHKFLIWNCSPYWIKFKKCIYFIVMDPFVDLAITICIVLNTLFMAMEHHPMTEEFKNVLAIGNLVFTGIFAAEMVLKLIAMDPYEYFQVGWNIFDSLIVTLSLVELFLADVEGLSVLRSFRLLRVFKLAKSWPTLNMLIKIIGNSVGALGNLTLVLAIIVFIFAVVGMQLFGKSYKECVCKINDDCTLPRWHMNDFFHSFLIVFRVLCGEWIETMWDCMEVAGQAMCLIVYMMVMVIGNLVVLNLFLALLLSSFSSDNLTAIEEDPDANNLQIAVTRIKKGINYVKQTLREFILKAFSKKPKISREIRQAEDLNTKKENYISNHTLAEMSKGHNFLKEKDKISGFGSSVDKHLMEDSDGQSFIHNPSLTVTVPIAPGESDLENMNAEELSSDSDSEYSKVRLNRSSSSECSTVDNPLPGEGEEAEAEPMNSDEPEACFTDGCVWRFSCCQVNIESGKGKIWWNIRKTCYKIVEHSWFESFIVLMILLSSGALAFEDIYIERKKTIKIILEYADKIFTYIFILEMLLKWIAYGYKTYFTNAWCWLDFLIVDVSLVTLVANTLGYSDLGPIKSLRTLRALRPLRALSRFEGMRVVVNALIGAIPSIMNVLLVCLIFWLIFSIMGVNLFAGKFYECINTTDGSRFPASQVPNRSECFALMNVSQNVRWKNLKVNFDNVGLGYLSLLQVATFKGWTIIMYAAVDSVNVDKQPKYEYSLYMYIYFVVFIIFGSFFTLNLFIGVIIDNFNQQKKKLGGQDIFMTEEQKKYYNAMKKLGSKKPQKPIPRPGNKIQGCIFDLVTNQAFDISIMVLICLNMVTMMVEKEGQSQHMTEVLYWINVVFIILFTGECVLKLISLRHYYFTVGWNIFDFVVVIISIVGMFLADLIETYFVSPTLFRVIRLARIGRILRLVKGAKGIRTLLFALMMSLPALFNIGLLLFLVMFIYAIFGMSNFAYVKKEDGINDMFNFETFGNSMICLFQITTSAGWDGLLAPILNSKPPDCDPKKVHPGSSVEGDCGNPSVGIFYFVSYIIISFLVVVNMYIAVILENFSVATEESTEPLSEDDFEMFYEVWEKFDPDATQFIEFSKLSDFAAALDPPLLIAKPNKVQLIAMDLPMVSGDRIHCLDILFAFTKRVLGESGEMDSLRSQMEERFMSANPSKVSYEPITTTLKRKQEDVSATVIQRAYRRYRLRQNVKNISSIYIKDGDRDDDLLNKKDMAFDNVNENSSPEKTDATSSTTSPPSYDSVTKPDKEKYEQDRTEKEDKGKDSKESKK

Row | SMILES | IC50 [1] [nM] | IC50 [2] [nM] | also measured
1 | Cc1onc(-c2c(Cl)cncc2Cl)c1NC(=O)NCc1ccc(OC(C)C)nc1 | 12600 | > 33100 | –
2 | Cc1onc(-c2c(Cl)cccc2Cl)c1CC(=O)NCc1ccc(-n2cccn2)cc1 | 851 | > 33100 | –
3 | Cc1cccc(C)c1-c1noc(C)c1N(C)C(=O)NCc1ccc(OC2CCOCC2)nc1 | 4470 | > 33100 | –
4 | COCc1onc(-c2c(Cl)cccc2Cl)c1NC(=O)OCc1ccccc1Cl | 331 | > 28200 | –
5 | Cc1onc(-c2c(Cl)cccc2Cl)c1N(C)C(=O)NCc1ccc(OC2CCOCC2)nc1 | 170 | 5890 | –
6 | Cc1onc(-c2c(Cl)cccc2Cl)c1NC(=O)NCc1c(F)cccc1Cl | 162 | 8510 | –
7 | Cc1cccc(C)c1-c1noc(C)c1NC(=O)NCc1ccc(-n2cccn2)cc1 | 1170 | > 33100 | –
8 | Cc1onc(-c2ccccc2Cl)c1N(C)C(=O)NCc1ccc(OC2CCOCC2)nc1 | 3630 | > 33100 | –
9 | Cc1cccc(C)c1-c1noc(C)c1CC(=O)NCc1ccc(OCC(F)(F)F)nc1 | 1230 | > 33100 | –
10 | Cc1cccc(C)c1-c1noc(C)c1NC(=O)NCc1c(F)cccc1Cl | 38 | > 10500 | –
11 | Cc1onc(-c2c(F)cccc2Cl)c1NC(=O)OCc1c(F)cccc1Cl | 72.4 | > 15800 | –
12 | Cc1cccc(C)c1-c1noc(C)c1NC(=O)OCc1c(F)cccc1Cl | 10.5 | 7760 | –
13 | Cc1onc(-c2c(Cl)cccc2Cl)c1CC(=O)NCc1ccc(OC(C)C)nc1 | 126 | 4680 | –
14 | Cc1onc(-c2c(Cl)cccc2Cl)c1NC(=O)NCc1ccc(-n2cccn2)cc1 | 263 | > 33100 | –
15 | Cc1cccc(C)c1-c1noc(C)c1CC(=O)NCc1cccc(OCCOCC(F)(F)F)n1 | 58.9 | 12000 | –
16 | Cc1onc(-c2c(Cl)cccc2Cl)c1NC(=O)OCc1cccc(N(C)C)c1 | 151 | > 25700 | –
17 | Cc1onc(-c2c(Cl)cccc2Cl)c1CC(=O)NCc1ccc(OCC(F)(F)F)nc1 | 178 | > 33100 | IC50 [3]: > 26300 nM; solubility [4]: 36 µM (≈ 17.1 µg/mL); microsomal CLint [5]: 64 µL/min/mg; microsomal CLint [6]: 116 µL/min/mg; AUC/dose (Rattus norvegicus [7]): 0.46 kg·h/L; Vd [8]: 1.6 L/kg; half-life [9]: 36 min; clearance [10]: 36 mL/min/kg; AUC/dose (Rattus norvegicus [11]): 0.12 kg·h/L; Cmax [12]: 400 nM; Tmax [13]: 18 min; half-life [14]: 228 min; bioavailability [15]: 19%
18 | Cc1onc(-c2c(Cl)cccc2Cl)c1NC(=O)OCc1c(F)cccc1Cl | 28.2 | 5500 | IC50 [3]: > 26300 nM; solubility [4]: < 1 µM; AUC/dose (Rattus norvegicus [7]): 0.73 kg·h/L; Vd [8]: 3 L/kg; half-life [9]: 84 min; clearance [10]: 45 mL/min/kg; AUC/dose (Rattus norvegicus [11]): 0.001 kg·h/L; Cmax [12]: 7 nM; Tmax [13]: 19.8 min; bioavailability [15]: 0.3%
19 | CCc1onc(-c2c(Cl)cccc2Cl)c1NC(=O)OCc1c(F)cccc1Cl | 9.33 | 7240 | –
20 | Cc1onc(-c2c(Cl)cccc2Cl)c1NC(=O)OCc1ccc(OC(C)C)nc1 | 22.9 | 8710 | –
21 | Cc1cccc(C)c1-c1noc(C)c1NC(=O)NCc1ccc(OC(C)C)nc1 | 209 | 20000 | –
22 | Cc1onc(-c2c(Cl)cccc2Cl)c1N(C)C(=O)OCc1ccc(OC(C)C)nc1 | 224 | > 28800 | –
23 | Cc1onc(-c2c(Cl)cccc2Cl)c1NC(=O)OCc1ccc(OC2CCCC2)nc1 | 28.8 | 1350 | –
24 | O=C(Nc1conc1-c1c(Cl)cccc1Cl)OCc1c(F)cccc1Cl | 12600 | – | –
25 | Cc1onc(-c2c(Cl)cccc2Cl)c1N(C)C(=O)OCc1c(F)cccc1Cl | 302 | > 33100 | –
26 | Cc1onc(-c2c(Cl)cccc2Cl)c1NC(=O)OCc1ccccc1Cl | 24 | 8710 | –
27 | Cc1onc(-c2c(Cl)cccc2Cl)c1NC(=O)OCc1cc(Cl)ccc1Cl | 138 | 2630 | –
